Results: ChEMBL document CHEMBL1201862, “PubChem BioAssay data set” (2004)
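Protocol summary: plate cells (96-well), add compound at 5 concentrations, incubate 48 h, interpolate endpoints linearly. Abbreviation: GI50, concentration required for 50% inhibition of growth.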 Calls of active or inactive are those of the source. No stated cut-off is given here; in the data, active = GI50 up to about 1.1 µM and inactive = higher.

Experiments:
Assay in all cases: NCI anticancer screen, dose series, 48 h
[1] = test system: HT-29
[2] = test system: SF-539
[3] = test system: CAKI-1
[4] = test system: SN12C
[5] = test system: NCI-H460
[6] = test system: HOP-62
[7] = test system: RPMI-8226
[8] = test system: SK-MEL-28
[9] = test system: NCI-H522
[10] = test system: LOX IMVI
[11] = test system: MCF7
[12] = test system: U-251
[13] = test system: COLO 205
[14] = test system: HL-60
[15] = test system: RXF 393
[16] = test system: SK-MEL-5
[17] = test system: K562
[18] = test system: SF-268
[19] = test system: EKVX
[20] = test system: M14

| Compound | GI50 [1] | GI50 [2] | GI50 [3] | GI50 [4] | GI50 [5] | GI50 [6] | GI50 [7] | GI50 [8] | GI50 [9] | GI50 [10] | GI50 [11] | GI50 [12] | GI50 [13] | GI50 [14] | GI50 [15] | GI50 [16] | GI50 [17] | GI50 [18] | GI50 [19] | GI50 [20] |
| --- | --- | --- | --- | --- | --- | --- | --- | --- | --- | --- | --- | --- | --- | --- | --- | --- | --- | --- | --- | --- |
| C[S+](C)CC1OC(n2cnc3c(N)ncnc32)C(O)C1O (configuration not stated) | > 225 µM (inactive) | > 225 µM (inactive) | > 225 µM (inactive) | > 178 µM (inactive) | > 225 µM (inactive) | > 225 µM (inactive) | > 225 µM (inactive) | > 225 µM (inactive) | > 225 µM (inactive) | > 225 µM (inactive) | > 225 µM (inactive) | > 225 µM (inactive) | > 225 µM (inactive) | > 225 µM (inactive) | > 225 µM (inactive) | > 225 µM (inactive) | > 225 µM (inactive) | > 225 µM (inactive) | > 225 µM (inactive) |  |
| CC(=O)OCC1OC(Nc2ncc(-c3ccc(C)cc3)s2)C(OC(C)=O)C(OC(C)=O)C1OC(C)=O (configuration not stated) | 29.2 µM (inactive) | 43.8 µM (inactive) | 29 µM (inactive) | 25.4 µM (inactive) | 31.5 µM (inactive) | 52 µM (inactive) | 24.7 µM (inactive) | 39.1 µM (inactive) | 64.9 µM (inactive) | 26.9 µM (inactive) | 13.3 µM (inactive) | 56.8 µM (inactive) | 40.5 µM (inactive) | 21 µM (inactive) | 47.3 µM (inactive) | 33.3 µM (inactive) | 34.2 µM (inactive) | 45.5 µM (inactive) | 54 µM (inactive) |  |
| CN(C)CCOc1cc2c(c3ccccc13)-c1ccccc1C2=O | 1.19 µM (inactive) | 1.76 µM (inactive) | 0.388 µM (active) | 1.58 µM (inactive) | 0.675 µM (active) | 1.19 µM (inactive) | 1.56 µM (inactive) | 1.8 µM (inactive) | 1.32 µM (inactive) | 1.05 µM (active) | 1.1 µM (active) | 2.16 µM (inactive) | 1.92 µM (inactive) | 1.24 µM (inactive) | 2.86 µM (inactive) | 1.58 µM (inactive) | 1.74 µM (inactive) | 1.45 µM (inactive) | 4.91 µM (inactive) |  |
| C=C1C[C@@H](O)C[C@@]2(C)C[C@@H]3OC(=O)C(=C)[C@@H]3C[C@H]12 | 2.94 µM (inactive) | 9.68 µM (inactive) | 4.22 µM (inactive) | 5.57 µM (inactive) | 16.5 µM (inactive) | 15.4 µM (inactive) | 2.92 µM (inactive) | 4.82 µM (inactive) | 7.78 µM (inactive) | 4.46 µM (inactive) | 3.78 µM (inactive) | 12.2 µM (inactive) | 1.61 µM (inactive) | 1.89 µM (inactive) | 6.34 µM (inactive) | 3.51 µM (inactive) | 4.19 µM (inactive) | 5.46 µM (inactive) |  |  |
| CN(C1=NCCO1)c1cccc2ccccc12 | > 10 µM (inactive) | > 10 µM (inactive) | > 10 µM (inactive) | > 10 µM (inactive) | > 10 µM (inactive) | > 10 µM (inactive) | > 10 µM (inactive) | > 10 µM (inactive) | > 10 µM (inactive) | > 10 µM (inactive) | > 10 µM (inactive) | > 10 µM (inactive) | > 10 µM (inactive) | > 10 µM (inactive) | > 10 µM (inactive) | > 10 µM (inactive) | > 10 µM (inactive) | > 10 µM (inactive) | > 10 µM (inactive) | > 10 µM (inactive) |
| COC(=O)C1C(O)C(C)C(O)C(C)(O)/C=C\C=C(C)C(=O)Nc2c(C)c(OC(C)=O)c3c(c2O)C(=O)C(C)=C2OCOC(=C23)C(C)=CC(C)(O)C(O)C(C)C1OC(C)=O (configuration not stated) | 45.4 µM (inactive) | 41.2 µM (inactive) | 47.5 µM (inactive) | 24 µM (inactive) | 26.1 µM (inactive) | > 86.3 µM (inactive) | 33.3 µM (inactive) | 40.1 µM (inactive) | 32.4 µM (inactive) | 20.4 µM (inactive) | 18 µM (inactive) | 57.4 µM (inactive) | 18.6 µM (inactive) | 28.4 µM (inactive) | 22.4 µM (inactive) | 30.3 µM (inactive) | 37.4 µM (inactive) | 46.6 µM (inactive) | 34.1 µM (inactive) |  |
| CCOC(=O)C1(C(F)(F)F)N=C(CC)OC(N2CCOCC2)=N1 (configuration not stated) | > 100 µM (inactive) | > 100 µM (inactive) | > 100 µM (inactive) | > 100 µM (inactive) | > 100 µM (inactive) |  | > 100 µM (inactive) | > 100 µM (inactive) | > 100 µM (inactive) | > 100 µM (inactive) | > 100 µM (inactive) | > 100 µM (inactive) | > 100 µM (inactive) | > 100 µM (inactive) | > 100 µM (inactive) | > 100 µM (inactive) | > 100 µM (inactive) | > 100 µM (inactive) | > 100 µM (inactive) | > 100 µM (inactive) |
| CCOC(=O)CNC(=O)NC12CC3CC(CC(C3)C1)C2 | 366 µM (inactive) | 203 µM (inactive) | 169 µM (inactive) | 219 µM (inactive) | 136 µM (inactive) | 185 µM (inactive) | 274 µM (inactive) | 179 µM (inactive) | 142 µM (inactive) | 237 µM (inactive) | 115 µM (inactive) | 269 µM (inactive) | 137 µM (inactive) | 177 µM (inactive) | 80.9 µM (inactive) | 131 µM (inactive) | 226 µM (inactive) | 284 µM (inactive) | 191 µM (inactive) |  |
